Test results as given in US20260249027A1, “METERED DOSE INHALERS AND HIGH-DOSE SUSPENSIONS” (Kindeva Drug Delivery L.P., priority 2023, published 2026).

Key:
Format in all cases: physicochemical
[1] = Through life dose consistency of nintedanib (free base) pMDI suspensions (USP <601>, apparatus A)
Protocol: (§1) In the following examples, dose consistency was determined by in vitro measurement of single actuation dose content at start, middle and end of pMDI unit life in line with U.S. Pharmacopeia (USP)<601>, using a flow rate of 28.3 L/min and apparatus A. Aerodynamic particle size distribution of the pMDI suspension aerosols was measured at start of unit life in line with U.S. Pharmacopeia (USP)<601> using a Next Generation impactor without pre-separator (apparatus 6) and a flow rate of 30 L/min.
(§2) Suspensions of micronized nintedanib (free base) in HFA-152a or HFO-1234ze(E) were prepared. A first set of suspensions included no ethanol. A second set of suspensions included 2% ethanol by weight. Each suspension included an amount of nintedanib (free base) to provide a nominal delivered dose (ex-valve) of 0.5 mg/actuation (7.94 mg/mL) or 1.0 mg/actuation (15.87 mg/mL). Two further suspensions including no ethanol were prepared which included an amount of nintedanib (free base) to provide a nominal delivered dose (ex-valve) of 2.0 mg/actuation (20.0 mg/mL).
(§3) In total, ten suspension pMDI formulations were prepared in triplicate with sufficient fill weight to provide 60 actuations. The pMDI formulations containing 0.5 mg/actuation (7.94 mg/mL) and 1.0 mg/actuation (15.87 mg/mL) of nintedanib (free base) were filled into Kindeva FEP coated canisters, crimped with a Kindeva 63-μL valve. The pMDI formulations containing 2.0 mg/actuation (20.0 mg/mL) of nintedanib (free base) were filled into Kindeva FEP coated canisters, crimped with a Kindeva 100-μL valve. Each pMDI unit was sonicated for at least 10 minutes to disperse the suspended drug and tested with a Kindeva actuator having an exit orifice diameter (EOD) of 0.4 mm.
The through-life (TL) dose consistency of each pMDI unit was determined by measuring the mean ex-actuator delivered dose in micrograms of nintedanib (free base) (N=3) at the start of life (SoL), middle of life (MOL) and end of life (EoL) of the unit.

[2] = Aerodynamic particle size measurement of nintedanib (free base) pMDI suspensions (Next Generation impactor)
Description: In general, aerosols with mass median aerodynamic diameters (MMAD) of at least 1 μm but less than 5 μm in size are suitable for effective deep lung deposition for therapeutic effect. Herein, fine particle fraction (FPF) is defined as the percentage of the ex-actuator delivered API having a MMAD of less than 5 μm when tested in vitro. Herein, “ex-actuator” delivered dose is used to describe the amount of API delivered past the actuator of a pMDI. Therefore, an aerosol with a high FPF is typically suitable for deep lung deposition.
as §1, §2
as §3, with “mm. The mass median aerodynamic diameter (MMAD) and fine particle fraction (FPF) of each pMDI unit were measured by Next Generation cascade impaction (N=3) for each pMDI suspension.” for “mm.”

[3] = Additional through life dosing content uniformity of nintedanib suspension in HFO-1234ze(E), coated 63-microliter valve; settings: nominal 1 mg/actuation (15.9 mg/mL), HFO-1234ze(E) without ethanol
Protocol: as §1
(§4) A suspension of nintedanib was prepared in HFO-1234ze(E). The concentration of nintedanib (15.9 mg/mL) was selected to provide a nominal actuation dose of 1 mg/actuation from a 63-microliter valve. The bottle emptier, tank, spring, and ferrule components of the valves were coated with a fluoropolymer coating according to the general process described in Example 2 of U.S. Patent Application Publication 2017/0152396 A1 (Jinks et al., hereby incorporated by reference). The formulation was mixed with a high shear mixer and cold filled into 16 mL FEP-coated canisters.
(§5) Average fine particle mass (<5 μm) was 434 μg/actuation.

[4] = Fine particle mass of nintedanib suspension in HFO-1234ze(E), coated 63-microliter valve; settings: nominal 1 mg/actuation (15.9 mg/mL), HFO-1234ze(E) without ethanol
Protocol: as §1, §4, §5

[5] = nominal ex-valve 0.5 mg/act, HFA152a/2% EtOH (w/w), 63-μL valve
[6] = nominal ex-valve 0.5 mg/act, HFA152a, 63-μL valve
[7] = nominal ex-valve 0.5 mg/act, HFO1234ze(E)/2% EtOH (w/w), 63-μL valve
[8] = nominal ex-valve 0.5 mg/act, HFO1234ze(E), 63-μL valve
[9] = nominal ex-valve 1.0 mg/act, HFA152a/2% EtOH (w/w), 63-μL valve
[10] = nominal ex-valve 1.0 mg/act, HFA152a, 63-μL valve
[11] = nominal ex-valve 1.0 mg/act, HFO1234ze(E)/2% EtOH (w/w), 63-μL valve
[12] = nominal ex-valve 1.0 mg/act, HFO1234ze(E), 63-μL valve
[13] = nominal ex-valve 2.0 mg/act, HFA152a, 100-μL valve
[14] = nominal ex-valve 2.0 mg/act, HFO1234ze(E), 100-μL valve
[15] = nominal ex-valve 0.5 mg/act, HFA-152a/2% EtOH (w/w), 63-μL valve
[16] = nominal ex-valve 0.5 mg/act, HFA-152a, 63-μL valve
[17] = nominal ex-valve 0.5 mg/act, HFO-1234ze(E)/2% EtOH (w/w), 63-μL valve
[18] = nominal ex-valve 0.5 mg/act, HFO-1234ze(E), 63-μL valve
[19] = nominal ex-valve 1.0 mg/act, HFA-152a/2% EtOH (w/w), 63-μL valve
[20] = nominal ex-valve 1.0 mg/act, HFA-152a, 63-μL valve
[21] = nominal ex-valve 1.0 mg/act, HFO-1234ze(E)/2% EtOH (w/w), 63-μL valve
[22] = nominal ex-valve 1.0 mg/act, HFO-1234ze(E), 63-μL valve
[23] = nominal ex-valve 2.0 mg/act, HFA-152a, 100-μL valve
[24] = nominal ex-valve 2.0 mg/act, HFO-1234ze(E), 100-μL valve

## COC(=O)c1ccc2c(c1)NC(=O)/C2=C(\Nc1ccc(N(C)C(=O)CN2CCN(C)CC2)cc1)c1ccccc1 [nintedanib (free base), nintedanib]
[1]; 2% ethanol by weight, HFA-152a or HFO-1234ze(E)
  effect of addition of ethanol on through unit life ex-actuator delivered dose consistency: did not always substantially improve
[1]; HFA-152a or HFO-1234ze(E) with and without 2% ethanol by weight
  through unit life ex-actuator delivered dose consistency: relatively consistent
[1]; [5]
  EoL mean delivered dose: 383.1 μg/act
  MoL mean delivered dose: 364.6 μg/act
  SoL mean delivered dose: 452.4 μg/act
  TL mean delivered dose: 400.1 μg/act
[1]; [6]
  EoL mean delivered dose: 335.9 μg/act
  MoL mean delivered dose: 360.0 μg/act
  SoL mean delivered dose: 468.9 μg/act
  TL mean delivered dose: 388.3 μg/act
[1]; [7]
  EoL mean delivered dose: 378.0 μg/act
  MoL mean delivered dose: 385.9 μg/act
  SoL mean delivered dose: 431.1 μg/act
  TL mean delivered dose: 398.3 μg/act
[1]; [8]
  EoL mean delivered dose: 380.5 μg/act
  MoL mean delivered dose: 372.8 μg/act
  SoL mean delivered dose: 401.8 μg/act
  TL mean delivered dose: 385.0 μg/act
[1]; [9]
  EoL mean delivered dose: 818.8 μg/act
  MoL mean delivered dose: 773.1 μg/act
  SoL mean delivered dose: 940.6 μg/act
  TL mean delivered dose: 844.2 μg/act
[1]; [10]
  EoL mean delivered dose: 890.2 μg/act
  MoL mean delivered dose: 759.1 μg/act
  SoL mean delivered dose: 1020.0 μg/act
  TL mean delivered dose: 889.8 μg/act
[1]; [11]
  EoL mean delivered dose: 818.5 μg/act
  MoL mean delivered dose: 824.9 μg/act
  SoL mean delivered dose: 926.7 μg/act
  TL mean delivered dose: 856.7 μg/act
[1]; [12]
  EoL mean delivered dose: 947.3 μg/act
  MoL mean delivered dose: 962.2 μg/act
  SoL mean delivered dose: 947.8 μg/act
  TL mean delivered dose: 952.4 μg/act
[1]; [13]
  EoL mean delivered dose: 1954.6 μg/act
  MoL mean delivered dose: 1876.0 μg/act
  SoL mean delivered dose: 2205.7 μg/act
  TL mean delivered dose: 2012.2 μg/act
[1]; [14]
  EoL mean delivered dose: 2282.4 μg/act
  MoL mean delivered dose: 1884.0 μg/act
  SoL mean delivered dose: 1561.8 μg/act
  TL mean delivered dose: 1909.4 μg/act
[2]; HFA-152a or HFO-1234ze(E), with and without ethanol, in-vitro
  MMAD values of aerosols, suitability: in an appropriate respirable range
[2]; HFA-152a or HFO-1234ze(E), all nominal doses
  FPF and MMAD without ethanol compared with corresponding suspensions with 2% ethanol by weight: consistently produced greater FPFs and smaller MMADs
[2]; [15]
  Mean FPF: 26.9%
  Mean MMAD: 3.65 μm
[2]; [16]
  Mean FPF: 33.7%
  Mean MMAD: 3.74 μm
[2]; [17]
  Mean FPF: 36.8%
  Mean MMAD: 3.50 μm
[2]; [18]
  Mean FPF: 60.0%
  Mean MMAD: 2.88 μm
[2]; [19]
  Mean FPF: 18.0%
  Mean MMAD: 4.74 μm
[2]; [20]
  Mean FPF: 23.8%
  Mean MMAD: 5.01 μm
[2]; [21]
  Mean FPF: 29.3%
  Mean MMAD: 4.20 μm
[2]; [22]
  Mean FPF: 44.4%
  Mean MMAD: 3.66 μm
[2]; [23]
  Mean FPF: 16.7%
  Mean MMAD: 7.47 μm
[2]; [24]
  Mean FPF: 34.8%
  Mean MMAD: 4.08 μm
[2]; with or without ethanol
  FPF and MMAD in HFO-1234ze(E) compared with corresponding suspensions in HFA-152a: consistently produced greater FPFs and smaller MMADs
[3]
  Through life dosing content uniformity, trend: no trending between start, middle, and end of life
  average dose (through life dosing content uniformity): 950 μg/actuation
[4]
  Average fine particle mass (<5 μm): 434 μg/actuation
